Reference: patent US20260363251A1 (priority 2022, published 2026)
Read-outs that look alike come from different tables or passages of the source. Numbered stars: 1 amine (or outer) side, 2 acyl side, 3 side chain; on linkers, the order of the positions; unused ones are H or OH. Bridge positions count the residues as written; N and C are the ends. Square brackets hold non-standard residues; d marks the D form. Peptide text beside a SMILES is read from it. * marks the point of attachment. Tridecanoyl(12-Me) = CC(C)CCCCCCCCCCC(=O)*; X1 = NC(=O)CC(O)C(N[*:1])C(=O)[*:2]; NMeF = CN[CH](Cc1ccccc1)C(=O)O; NMeN = CN[CH](CC(N)=O)C(=O)O; X2 = CCC(C)CCCCCCCCCCC(=O)*

Experiments:
Aphanomyces cochlioides = experiment: Seed treatment, soilborne Aphanomyces cochlioides in sugar beet in the greenhouse (Example 4.3); format: in vivo, Aphanomyces cochlioides strain K-9164; conditions: Tachigaren WS070; damping off vs infected control
[1] = Solubility in water or DMSO
Fusarium culmorum = experiment: Seed treatment, soilborne Fusarium culmorum in wheat under semi-field conditions (Example 4.1B); format: in vivo; conditions: Celest FS025, 5 g ai per 100 kg seeds; plant emergence vs infected control
Oculimacula yallundae = experiment: Treatment of eyespot on wheat (Table 15); format: in vivo; conditions: 1 d preventive, 200 L/ha, 450 g/ha
Pyricularia oryzae = format: in vivo; conditions: 1 d preventive, 400 L/ha
[2] = test system: Colletotrichum lagenarium; experiment: Treatment of anthracnose on cucumber (Table 13); format: in vivo; conditions: 1 d preventive, 400 L/ha, 5DAI
Rhynchosporium secalis = experiment: Treatment of scald on barley (Table 14); format: in vivo; conditions: 1 d preventive, 200 L/ha, 15DAI
Puccinia recondita [3] = experiment: Preventive and curative treatment of Puccinia recondita on wheat (Table 8); format: in vivo; conditions: 200 L/ha
Parastagonospora nodorum = experiment: Treatment of glume blotch on wheat (Table 14); format: in vivo; conditions: 1 d preventive, 200 L/ha, 7DAI
Zymoseptoria tritici [4] = experiment: Preventive and curative treatment of Zymoseptoria tritici on wheat (Table 8); format: in vivo; conditions: 200 L/ha, 17DAI
Ramularia collo-cygni = experiment: Treatment of ramularia leaf spot on barley (Table 14); format: in vivo; conditions: 1 d preventive, 200 L/ha, 20DAI
Mycosphaerella arachidis = experiment: Treatment of early leaf spots on groundnut (Table 13); format: in vivo; conditions: 1 d preventive, 400 L/ha, 11DAI
Puccinia striiformis = experiment: Treatment of wheat infected with yellow rust Puccinia striiformis (Table 9); format: in vivo; conditions: 200 L/ha
Alternaria solani = experiment: Treatment of early blight on tomato (Table 13); format: in vivo; conditions: 1 d preventive, 400 L/ha, 4DAI
Puccinia recondita [5] = experiment: Treatment of Puccinia recondita on wheat beyond the treated area (Table 16); format: in vivo; conditions: 188 ppm, 11DAI
Zymoseptoria tritici [6] = experiment: Treatment of Zymoseptoria tritici on wheat beyond the treated area (Table 16); format: in vivo; conditions: 188 ppm, 17DAI
[7] = test system: Blumeria graminis f.sp. tritici; experiment: Treatment of powdery mildew on wheat (Table 12); format: in vivo; conditions: 1 d preventive, 200 L/ha, 27 g/ha, 7DAI
Rhizoctonia solani = experiment: Treatment of sheath blight on rice (Table 11); conditions: 1 d preventive, 400 L/ha
[8] = dmso, organic solvent or mixture

SMILES: Cc1cc(O)no1 [Hymexazol]
- activity (%) (Aphanomyces cochlioides): 74%

SMILES: CC(C)CCCCCCCCCCC(=O)NC1C(=O)NC(CC(=O)O)C(=O)NC(C(O)CC(N)=O)C(=O)NC(CO)C(=O)N(C)C(CC(N)=O)C(=O)N(C)C(Cc2ccccc2)C(=O)NC(CCC(N)=O)C(=O)NC(CCC(=O)O)C(=O)OC1C (stereo not drawn) [Formula II (a) Lipopeptide 1204] ({Tridecanoyl(12-Me)}-TD[X1]S[NMeN][NMeF]QE; ester 1-C; configuration not given here)
- solubility [1, 8]: > 10000 µg/mL
- solubility ([1]; water, pH 2.08, water): 21.4 µg/mL

SMILES: N#Cc1c[nH]cc1-c1cccc2c1OC(F)(F)O2 [Fludioxonil]
- activity (%) (Fusarium culmorum): 93%

SMILES: CC(=O)NC1C(OCC(OC2OC(CO)C(O)C(O)C2O)C2OC(OC3C(O)C(CO)OC(OC4(CO)OC(C(O)CO)C(O)C4OC4OC(CO)C(O)C(O)C4O)C3O)C(O)C(O)C2OC2OC(C(O)CO)C(O)C(O)C2OC2OCC(OC(N)=O)C(O)C2O)OC(CO)C(O)C1O (stereo not drawn) [compound I]
- solubility [1, 8]: > 9770 µg/mL

SMILES: Cc1cc(C2CC2)nc(Nc2ccccc2)n1 [Cyprodinil]
- disease symptom reduction (%) vs. Untreated (Oculimacula yallundae): 56%

SMILES: CCCC1COC(Cn2cncn2)(c2ccc(Cl)cc2Cl)O1 (stereo not drawn) [Propiconazole]
- disease symptom reduction (%) vs. Untreated (Pyricularia oryzae; 5 g/ha): 17%
- disease symptom reduction (%) vs. Untreated (Pyricularia oryzae; 14 g/ha): 38%
- disease symptom reduction (%) vs. Untreated (Pyricularia oryzae; 42 g/ha): 79%
- disease symptom reduction (%) vs. Untreated (Pyricularia oryzae; 125 g/ha): 92%

SMILES: Cn1cc(C(=O)Nc2cccc3c2C2CCC3C2=C(Cl)Cl)c(C(F)F)n1 (stereo not drawn) [SOLATENOL]
- disease symptom reduction (%) vs. Untreated ([2]; 1 g/ha): 53%
- disease symptom reduction (%) vs. Untreated ([2]; 2 g/ha): 67%
- disease symptom reduction (%) vs. Untreated ([2]; 6 g/ha): 60%
- disease symptom reduction (%) vs. Untreated ([2]; 20 g/ha): 90%
- disease symptom reduction (%) vs. Untreated ([2]; 60 g/ha): 100%
- disease symptom reduction (%) vs. Untreated (Rhynchosporium secalis; 4 g/ha): 31%
- disease symptom reduction (%) vs. Untreated (Rhynchosporium secalis; 12 g/ha): 60%
- disease symptom reduction (%) vs. Untreated (Rhynchosporium secalis; 40 g/ha): 94%
- disease symptom reduction (%) vs. Untreated (Rhynchosporium secalis; 120 g/ha): 100%
- disease symptom reduction (%) vs. Untreated (Puccinia recondita [3]; 1 d preventive, 1 g/ha, 10DAI): 49%
- disease symptom reduction (%) vs. Untreated (Puccinia recondita [3]; 1 d preventive, 3 g/ha, 10DAI): 88%
- disease symptom reduction (%) vs. Untreated (Puccinia recondita [3]; 1 d preventive, 9 g/ha, 10DAI): 96%
- disease symptom reduction (%) vs. Untreated (Puccinia recondita [3]; 1 d preventive, 27 g/ha, 10DAI): 99%
- disease symptom reduction (%) vs. Untreated (Puccinia recondita [3]; 3 d curative, 1 g/ha, 11DAI): 47%
- disease symptom reduction (%) vs. Untreated (Puccinia recondita [3]; 3 d curative, 3 g/ha, 11DAI): 58%
- disease symptom reduction (%) vs. Untreated (Puccinia recondita [3]; 3 d curative, 9 g/ha, 11DAI): 84%
- disease symptom reduction (%) vs. Untreated (Puccinia recondita [3]; 3 d curative, 27 g/ha, 11DAI): 92%
- disease symptom reduction (%) vs. Untreated (Parastagonospora nodorum; 4 g/ha): 16%
- disease symptom reduction (%) vs. Untreated (Parastagonospora nodorum; 12 g/ha): 44%
- disease symptom reduction (%) vs. Untreated (Parastagonospora nodorum; 40 g/ha): 81%
- disease symptom reduction (%) vs. Untreated (Parastagonospora nodorum; 120 g/ha): 85%
- disease symptom reduction (%) vs. Untreated (Zymoseptoria tritici [4]; 1 d preventive, 1 g/ha): 0%
- disease symptom reduction (%) vs. Untreated (Zymoseptoria tritici [4]; 1 d preventive, 3 g/ha): 0%
- disease symptom reduction (%) vs. Untreated (Zymoseptoria tritici [4]; 1 d preventive, 9 g/ha): 70%
- disease symptom reduction (%) vs. Untreated (Zymoseptoria tritici [4]; 1 d preventive, 27 g/ha): 97%
- disease symptom reduction (%) vs. Untreated (Zymoseptoria tritici [4]; 3 d curative, 1 g/ha): 4%
- disease symptom reduction (%) vs. Untreated (Zymoseptoria tritici [4]; 3 d curative, 3 g/ha): 0%
- disease symptom reduction (%) vs. Untreated (Zymoseptoria tritici [4]; 3 d curative, 9 g/ha): 61%
- disease symptom reduction (%) vs. Untreated (Zymoseptoria tritici [4]; 3 d curative, 27 g/ha): 82%
- disease symptom reduction (%) vs. Untreated (Ramularia collo-cygni; 4 g/ha): 6%
- disease symptom reduction (%) vs. Untreated (Ramularia collo-cygni; 12 g/ha): 32%
- disease symptom reduction (%) vs. Untreated (Ramularia collo-cygni; 40 g/ha): 80%
- disease symptom reduction (%) vs. Untreated (Ramularia collo-cygni; 120 g/ha): 97%
- disease symptom reduction (%) vs. Untreated (Mycosphaerella arachidis; 1 g/ha): 56%
- disease symptom reduction (%) vs. Untreated (Mycosphaerella arachidis; 2 g/ha): 67%
- disease symptom reduction (%) vs. Untreated (Mycosphaerella arachidis; 6 g/ha): 89%
- disease symptom reduction (%) vs. Untreated (Mycosphaerella arachidis; 20 g/ha): 100%
- disease symptom reduction (%) vs. Untreated (Mycosphaerella arachidis; 60 g/ha): 98%
- disease symptom reduction (%) vs. Untreated (Puccinia striiformis; 1 d preventive, 0.9 g/ha, 22DAI): 0%
- disease symptom reduction (%) vs. Untreated (Puccinia striiformis; 1 d preventive, 2.8 g/ha, 22DAI): 76%
- disease symptom reduction (%) vs. Untreated (Puccinia striiformis; 1 d preventive, 8 g/ha, 22DAI): 90%
- disease symptom reduction (%) vs. Untreated (Puccinia striiformis; 1 d preventive, 25 g/ha, 22DAI): 100%
- disease symptom reduction (%) vs. Untreated (Puccinia striiformis; 1 d preventive, 75 g/ha, 22DAI): 100%
- disease symptom reduction (%) vs. Untreated (Puccinia striiformis; 4 d curative, 0.9 g/ha, 21DAI): 84%
- disease symptom reduction (%) vs. Untreated (Puccinia striiformis; 4 d curative, 2.8 g/ha, 21DAI): 93%
- disease symptom reduction (%) vs. Untreated (Puccinia striiformis; 4 d curative, 8 g/ha, 21DAI): 95%
- disease symptom reduction (%) vs. Untreated (Puccinia striiformis; 4 d curative, 25 g/ha, 21DAI): 99%
- disease symptom reduction (%) vs. Untreated (Puccinia striiformis; 4 d curative, 75 g/ha, 21DAI): 100%
- disease symptom reduction (%) vs. Untreated (Alternaria solani; 1 g/ha): 40%
- disease symptom reduction (%) vs. Untreated (Alternaria solani; 2 g/ha): 53%
- disease symptom reduction (%) vs. Untreated (Alternaria solani; 6 g/ha): 80%
- disease symptom reduction (%) vs. Untreated (Alternaria solani; 20 g/ha): 90%
- disease symptom reduction (%) vs. Untreated (Alternaria solani; 60 g/ha): 100%
- disease cover on leaf (%) (Puccinia recondita [5]; leaf 1, not treated): 80%
- disease symptom reduction (%) vs. Untreated (Puccinia recondita [5]; leaf 1, not treated): 11%
- disease cover on leaf (%) (Puccinia recondita [5]; leaf 2 - base, not treated): 81%
- disease symptom reduction (%) vs. Untreated (Puccinia recondita [5]; leaf 2 - base, not treated): 0%
- disease cover on leaf (%) (Puccinia recondita [5]; leaf 2 - middle, treated): 0%
- disease symptom reduction (%) vs. Untreated (Puccinia recondita [5]; leaf 2 - middle, treated): 100%
- disease cover on leaf (%) (Puccinia recondita [5]; leaf 2 - tip, not treated): 2%
- disease symptom reduction (%) vs. Untreated (Puccinia recondita [5]; leaf 2 - tip, not treated): 98%
- disease cover on leaf (%) (Puccinia recondita [5]; leaf 3, not treated): 31%
- disease symptom reduction (%) vs. Untreated (Puccinia recondita [5]; leaf 3, not treated): 16%
- disease cover on leaf (%) (Zymoseptoria tritici [6]; leaf 1, not treated): 100%
- disease symptom reduction (%) vs. Untreated (Zymoseptoria tritici [6]; leaf 1, not treated): 0%
- disease cover on leaf (%) (Zymoseptoria tritici [6]; leaf 2 - base, not treated): 89%
- disease symptom reduction (%) vs. Untreated (Zymoseptoria tritici [6]; leaf 2 - base, not treated): 8%
- disease cover on leaf (%) (Zymoseptoria tritici [6]; leaf 2 - middle, treated): 0%
- disease symptom reduction (%) vs. Untreated (Zymoseptoria tritici [6]; leaf 2 - middle, treated): 100%
- disease cover on leaf (%) (Zymoseptoria tritici [6]; leaf 2 - tip, not treated): 0%
- disease symptom reduction (%) vs. Untreated (Zymoseptoria tritici [6]; leaf 2 - tip, not treated): 100%
- disease cover on leaf (%) (Zymoseptoria tritici [6]; leaf 3, not treated): 42%
- disease symptom reduction (%) vs. Untreated (Zymoseptoria tritici [6]; leaf 3, not treated): 15%
- disease symptom reduction (%) vs. Untreated [7]: 54%

SMILES: CCC(C)CCCCCCCCCCC(=O)NC1C(=O)NC(CC(=O)O)C(=O)NC(C(O)CC(N)=O)C(=O)NC(CO)C(=O)N(C)C(CC(N)=O)C(=O)N(C)C(Cc2ccccc2)C(=O)NC(CCC(N)=O)C(=O)NC(CCC(=O)O)C(=O)OC1C (stereo not drawn) [Formula II (b) Lipopeptide 1218] (X2-TD[X1]S[NMeN][NMeF]QE; ester 1-C; configuration not given here)
- solubility [1, 8]: > 10000 µg/mL

SMILES: CO/C=C(/C(=O)OC)c1ccccc1Oc1cc(Oc2ccccc2C#N)ncn1 [Azoxystrobin]
- disease symptom reduction (%) vs. Untreated (Pyricularia oryzae; 3 g/ha): 92%
- disease symptom reduction (%) vs. Untreated (Pyricularia oryzae; 9 g/ha): 85%
- disease symptom reduction (%) vs. Untreated (Pyricularia oryzae; 28 g/ha): 96%
- disease symptom reduction (%) vs. Untreated (Pyricularia oryzae; 83 g/ha): 92%
- disease symptom reduction (%) vs. Untreated (Rhizoctonia solani; 3 g/ha): 62%
- disease symptom reduction (%) vs. Untreated (Rhizoctonia solani; 9 g/ha): 86%
- disease symptom reduction (%) vs. Untreated (Rhizoctonia solani; 28 g/ha): 81%
- disease symptom reduction (%) vs. Untreated (Rhizoctonia solani; 83 g/ha): 86%
